Where two headings read alike, the source gives them in different places.
Biological target: T1, CD80-CD28 interaction (Homo sapiens, UniProt P33681)
T1 construct: mouse Fab fragment (fusion partner)
T1 sequence (P33681 35-242 limits assumed): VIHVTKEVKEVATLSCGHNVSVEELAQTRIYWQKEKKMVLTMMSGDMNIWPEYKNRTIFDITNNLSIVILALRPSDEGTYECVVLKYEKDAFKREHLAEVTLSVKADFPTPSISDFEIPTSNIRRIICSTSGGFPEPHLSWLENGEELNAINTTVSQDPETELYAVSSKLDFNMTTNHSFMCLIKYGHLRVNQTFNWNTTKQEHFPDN
Assay: cell free Homogenous Time Resolved Fluorescence (HTRF) assay, inhibition of the CD80-CD28 interaction
Type: binding
Experimental: The examples described above were tested in a cell free Homogenous Time Resolved Fluorescence (HTRF) assay to determine their activity as inhibitors of the CD80-CD28 interaction.
In the assay, europium and allophycocyanin (APC) are associated with CD28 and CD80 indirectly (through antibody linkers) to form a complex, which brings the europium and APC into close proximity to generate a signal. The complex comprises the following six proteins: fluorescent label 1, linker antibody 1, CD28 fusion protein, CD80 fusion protein, linker antibody 2, and fluorescent label 2. The table below describes these reagents in greater detail.
On formation of the complex, europium and APC are brought into proximity and a signal is generated.
Non-specific interaction was measured by substituting a mouse Fab fragment (C215) for the CD80 mouse Fab fragment fusion protein (1.9 μg/ml). The assay was carried out in black 384 well plates in a final volume of 30 μl. Assay buffer: 50 mM Tris-HCl, 150 mM NaCl pH7.8, containing 0.1% BSA (w/v) added just prior to use.
Compounds were added to the above reagents in a concentration series ranging between 100 μM-1.7 nM. The reaction was incubated for 4 hours at room temperature. Dual measurements were made using a Wallac Victor 1420 Multilabel Counter. First measurement: excitation 340 nm, emission 665 nm, delay 50 μs, window time 200 μs. second measurement: excitation 340 nm, emission 615 nm, delay 50 μs, window time 200 μs. Counts were automatically corrected for fluorescence crossover, quenching and background.

[1] = 4 hours at room temperature, read-out: Activity (EC50 in summary form)

SMILES	EC50 [1] [µM]	EC50 (read-out: EC50) [µM]
CCC(C)C(=O)Nc1ccc(-n2nc3c4cccc(F)c4[nH]cc-3c2=O)cc1 (centres unmarked) [Example 1, N-[4-(6-Fluoro-3-oxo-3,5-dihydropyrazolo[4,3-c]quinolin-2-yl)-phenyl]-2-methyl-butyramide]	< 1	
CCCC(C)C(=O)Nc1ccc(-n2nc3c4cccc(F)c4[nH]cc-3c2=O)cc1 (centres unmarked) [Example 2, 2-Methyl-pentanoic acid [4-(6-fluoro-3-oxo-3,5-dihydro-pyrazolo[4,3-c]quinolin-2-yl)-phenyl]-amide]	< 1	
Cn1cccc1C(=O)Nc1ccc(-n2nc3c4cccc(F)c4[nH]cc-3c2=O)cc1 [Example 3, 1-Methyl-1H-pyrrole-2-carboxylic acid [4-(6-fluoro-3-oxo-3,5-dihydro-pyrazolo[4,3-c]quinolin-2-yl)-phenyl]-amide]	> 10	
CC(C)CC(=O)Nc1ccc(-n2nc3c4cccc(F)c4[nH]cc-3c2=O)cc1 [Example 4, N-[4-(6-Fluoro-3-oxo-3,5-dihydro-pyrazolo[4,3-c]quinolin-2-yl)-phenyl]-3-methyl-butyramide]	1 to 10	
CCCC(CCC)C(=O)Nc1ccc(-n2nc3c4cccc(F)c4[nH]cc-3c2=O)cc1 [Example 5, 2-Propyl-pentanoic acid [4-(6-fluoro-3-oxo-3,5-dihydro-pyrazolo[4,3-c]quinolin-2-yl)-phenyl]-amide]	> 10	
COC(=O)CCCCC(=O)Nc1ccc(-n2nc3c4cccc(F)c4[nH]cc-3c2=O)cc1 [Example 6, 5-[4-(6-Fluoro-3-oxo-3,5-dihydro-pyrazolo[4,3-c]quinolin-2-yl)phenylcarbamoyl]-pentanoic acid methyl ester]	< 1	
CC(C)(C)C(=O)Nc1ccc(-n2nc3c4cccc(F)c4[nH]cc-3c2=O)cc1 [Example 7, N-[4-(6-Fluoro-3-oxo-3,5-dihydro-pyrazolo[4,3-c]quinolin-2-yl)-phenyl]-2,2-dimethyl-propionamide]	1 to 10	
O=C(COCc1ccccc1)Nc1ccc(-n2nc3c4cccc(F)c4[nH]cc-3c2=O)cc1 [Example 8]	1 to 10	
O=C(CCl)Nc1ccc(-n2nc3c4cccc(F)c4[nH]cc-3c2=O)cc1 [Example 9]	1 to 10	
O=C(Nc1ccc(-n2nc3c4cccc(F)c4[nH]cc-3c2=O)cc1)c1ccco1 [Example 10]	> 10	
O=C(Nc1ccc(-n2nc3c4cccc(F)c4[nH]cc-3c2=O)cc1)c1ccc(N2CCOCC2)nc1 [Example 11]	> 10	
COC(=O)C(=O)Nc1ccc(-n2nc3c4cccc(F)c4[nH]cc-3c2=O)cc1 [Example 12]	1 to 10	
CCCc1c(C(=O)Nc2ccc(-n3nc4c5cccc(F)c5[nH]cc-4c3=O)cc2)cnn1-c1ccccc1 [Example 14]	> 10	
O=C(Nc1ccc(-n2nc3c4cccc(F)c4[nH]cc-3c2=O)cc1)c1ncoc1-c1ccccc1 [Example 15]	1 to 10	8
CC(=O)Nc1ccc(-n2nc3c4cccc(F)c4[nH]cc-3c2=O)cc1 [Example 16]	1 to 10	
CCCCC(CC)C(=O)Nc1ccc(-n2nc3c4cccc(F)c4[nH]cc-3c2=O)cc1 (centres unmarked) [Example 17]	> 10	
CCC(CC)C(=O)Nc1ccc(-n2nc3c4cccc(F)c4[nH]cc-3c2=O)cc1 [Example 18]	< 1	
O=C(CC1CCCC1)Nc1ccc(-n2nc3c4cccc(F)c4[nH]cc-3c2=O)cc1 [Example 19]	1 to 10	
CC(=O)N1CCC(C(=O)Nc2ccc(-n3nc4c5cccc(F)c5[nH]cc-4c3=O)cc2)CC1 [Example 20]	1 to 10	
O=C(Cc1c(Cl)cccc1Cl)Nc1ccc(-n2nc3c4cccc(F)c4[nH]cc-3c2=O)cc1 [Example 21]	1 to 10	1.9

SMILES	EC50 [1] [µM]	EC50 (read-out: EC50) [µM]
CC(=O)OC(C)(C)C(=O)Nc1ccc(-n2nc3c4cccc(F)c4[nH]cc-3c2=O)cc1 [Example 22]	< 1	
COC(=O)CCCCCCCCC(=O)Nc1ccc(-n2nc3c4cccc(F)c4[nH]cc-3c2=O)cc1 [Example 23]	1 to 10	
CC(C)C(=O)Nc1ccc(-n2nc3c4cccc(F)c4[nH]cc-3c2=O)cc1 [Example 24]	< 1	
COCCOCC(=O)Nc1ccc(-n2nc3c4cccc(F)c4[nH]cc-3c2=O)cc1 [Example 25]	1 to 10	
COCC(=O)Nc1ccc(-n2nc3c4cccc(F)c4[nH]cc-3c2=O)cc1 [Example 27]	1 to 10	
O=C(Nc1ccc(-n2nc3c4cccc(F)c4[nH]cc-3c2=O)cc1)c1ccno1 [Example 28]	1 to 10	
C[N+](C)(C)CCCC(=O)Nc1ccc(-n2nc3c4cccc(F)c4[nH]cc-3c2=O)cc1 [Example 29]	< 1	0.95
CN(C)CCCC(=O)Nc1ccc(-n2nc3c4cccc(F)c4[nH]cc-3c2=O)cc1 [Example 30]	< 1	
CN(CCCNCC(=O)Nc1ccc(-n2nc3c4cccc(F)c4[nH]cc-3c2=O)cc1)c1ccccc1 [Example 31]	> 10	
CN(C)c1ccc(CNCC(=O)Nc2ccc(-n3nc4c5cccc(F)c5[nH]cc-4c3=O)cc2)cc1 [Example 32]	> 10	
CN1C(C)(C)CC(NCC(=O)Nc2ccc(-n3nc4c5cccc(F)c5[nH]cc-4c3=O)cc2)CC1(C)C [Example 33]	< 1	
O=C(CN1CCN(C2CCCCCC2)CC1)Nc1ccc(-n2nc3c4cccc(F)c4[nH]cc-3c2=O)cc1 [Example 34]	< 1	
O=C(CNCCCN1CCCC1=O)Nc1ccc(-n2nc3c4cccc(F)c4[nH]cc-3c2=O)cc1 [Example 35]	< 1	0.148
O=C(CNCCc1ccccn1)Nc1ccc(-n2nc3c4cccc(F)c4[nH]cc-3c2=O)cc1 [Example 36]	1 to 10	
O=C(CNC1CCCCNC1=O)Nc1ccc(-n2nc3c4cccc(F)c4[nH]cc-3c2=O)cc1 (centres unmarked) [Example 37]	1 to 10	
COC(=O)CC[C@H](N)C(=O)Nc1ccc(-n2nc3c4cccc(F)c4[nH]cc-3c2=O)cc1 [Example 38]	1 to 10	
CN1CCCC1CCNCC(=O)Nc1ccc(-n2nc3c4cccc(F)c4[nH]cc-3c2=O)cc1 (centres unmarked) [Example 39]	< 1	
O=C(CNCCCn1ccnc1)Nc1ccc(-n2nc3c4cccc(F)c4[nH]cc-3c2=O)cc1 [Example 40]	1 to 10	
CC(C)N(CCNCC(=O)Nc1ccc(-n2nc3c4cccc(F)c4[nH]cc-3c2=O)cc1)C(C)C [Example 41]	1 to 10	
O=C(CN1CCCCC1)Nc1ccc(-n2nc3c4cccc(F)c4[nH]cc-3c2=O)cc1 [Example 42]	1 to 10	

SMILES	EC50 [1] [µM]	EC50 (read-out: EC50) [µM]
CC(N)C(=O)Nc1ccc(-n2nc3c4ccccc4[nH]cc-3c2=O)cc1 (centres unmarked) [Example 43]	1 to 10	
CCCC(C)C(=O)Nc1ccc(-n2nc3c4ccccc4[nH]cc-3c2=O)cc1 (centres unmarked) [Example 44]	> 10	
CC(C)C(=O)Nc1ccc(-n2nc3c4ccccc4[nH]cc-3c2=O)cc1 [Example 45]	1 to 10	
CC(N)C(=O)Nc1ccc(-n2nc3c4cccc(F)c4[nH]cc-3c2=O)cc1 (centres unmarked) [Example 46]	< 1	
CCC(C)C(=O)Nc1ccc(-n2nc3c4ccccc4[nH]cc-3c2=O)cc1 (centres unmarked) [Example 47]	1 to 10	
O=C(CN1CCN(Cc2ccc(F)cc2)CC1)Nc1ccc(-n2nc3c4cccc(F)c4[nH]cc-3c2=O)cc1 [Example 48]	1 to 10	
CN(CC(=O)Nc1ccc(-n2nc3c4cccc(F)c4[nH]cc-3c2=O)cc1)Cc1ccccc1 [Example 49]	1 to 10	
COCCCNC(=O)c1cccc(-n2nc3c4cccc(F)c4[nH]cc-3c2=O)c1 [Example 50, 3-(6-Fluoro-3-oxo-3,5-dihydro-pyrazolo[4,3-c]quinolin-2-yl)-N-(3-methoxy-propyl)-benzamide]	1 to 10	
CCNC(=O)c1cccc(-n2nc3c4cccc(F)c4[nH]cc-3c2=O)c1 [Example 51, N-Ethyl-3-(6-fluoro-3-oxo-3,5-dihydro-pyrazolo[4,3-c]-quinolin-2-yl)-benzamide]	1 to 10	
O=C(NCc1ccccc1)c1cccc(-n2nc3c4cccc(F)c4[nH]cc-3c2=O)c1 [Example 52, N-Benzyl-3-(6-fluoro-3-oxo-3,5-dihydro-pyrazolo[4,3-c]-quinolin-2-yl)-benzamide]	> 10	
CN(C)CCCN(C)C(=O)c1cccc(-n2nc3c4cccc(F)c4[nH]cc-3c2=O)c1 [Example 53]	> 10	
CN(C)CCCNC(=O)c1cccc(-n2nc3c4cccc(F)c4[nH]cc-3c2=O)c1 [Example 54]	1 to 10	
N[C@H]1CC[C@H](NC(=O)c2cccc(-n3nc4c5cccc(F)c5[nH]cc-4c3=O)c2)CC1 [Example 55]	> 10	
O=C(NCCCN1CCCC1)c1cccc(-n2nc3c4cccc(F)c4[nH]cc-3c2=O)c1 [Example 56]	> 10	
O=C(NCCCCN1CCCC1)c1cccc(-n2nc3c4cccc(F)c4[nH]cc-3c2=O)c1 [Example 57]	1 to 10	
CN(C)CCCCNC(=O)c1cccc(-n2nc3c4cccc(F)c4[nH]cc-3c2=O)c1 [Example 58]	1 to 10	
COCCNC(=O)c1cccc(-n2nc3c4cccc(F)c4[nH]cc-3c2=O)c1 [Example 59]	1 to 10	
CCN(CC)C(=O)c1cccc(-n2nc3c4cccc(F)c4[nH]cc-3c2=O)c1 [Example 60]	> 10	
